Data: the supplement of paper PMC13380429

How the values were obtained:
Conditions in all cases: 72 h
[1] = test system: Caco-2; experiment: cell viability relative to DMSO; higher = less toxic
[2] = test system: Calu-3; experiment: as above
[3] = test system: HepG2; experiment: as above
[4] = test system: U2OS; experiment: as above
[5] = test system: Vero E6; experiment: as above
[6] = test system: Caco-2; experiment: relative viability EC50 (midpoint between 100% and the lowest measured viability); higher = less toxic
[7] = test system: Calu-3; experiment: as above
[8] = test system: HepG2; experiment: as above
[9] = test system: U2OS; experiment: as above
[10] = test system: Vero E6; experiment: as above
[11] = test system: Caco-2; experiment: drug sensitivity score (DSS) for viability; higher = more toxic; extreme values may be limits of the assay
[12] = test system: Calu-3; experiment: as above
[13] = test system: HepG2; experiment: as above
[14] = test system: U2OS; experiment: as above
[15] = test system: Vero E6; experiment: as above

| Compound | cell viability ([1]; 1 nM) [%] | cell viability ([1]; 10 nM) [%] | cell viability ([1]; 100 nM) [%] | cell viability ([1]; 1000 nM) [%] | cell viability ([1]; 10000 nM) [%] | cell viability ([2]; 1 nM) [%] | cell viability ([2]; 10 nM) [%] | cell viability ([2]; 100 nM) [%] | cell viability ([2]; 1000 nM) [%] | cell viability ([2]; 10000 nM) [%] | cell viability ([3]; 1 nM) [%] | cell viability ([3]; 10 nM) [%] | cell viability ([3]; 100 nM) [%] | cell viability ([3]; 1000 nM) [%] | cell viability ([3]; 10000 nM) [%] | cell viability ([4]; 1 nM) [%] | cell viability ([4]; 10 nM) [%] | cell viability ([4]; 100 nM) [%] | cell viability ([4]; 1000 nM) [%] | cell viability ([4]; 10000 nM) [%] | cell viability ([5]; 1 nM) [%] | cell viability ([5]; 10 nM) [%] | cell viability ([5]; 100 nM) [%] | cell viability ([5]; 1000 nM) [%] | cell viability ([5]; 10000 nM) [%] | relative viability EC50 [6] [µM] | relative viability EC50 [7] [µM] | relative viability EC50 [8] [µM] | relative viability EC50 [9] [µM] | relative viability EC50 [10] [µM] | drug sensitivity score [11] | drug sensitivity score [12] | drug sensitivity score [13] | drug sensitivity score [14] | drug sensitivity score [15] |
| --- | --- | --- | --- | --- | --- | --- | --- | --- | --- | --- | --- | --- | --- | --- | --- | --- | --- | --- | --- | --- | --- | --- | --- | --- | --- | --- | --- | --- | --- | --- | --- | --- | --- | --- | --- |
| CCN(CC)CCOCCOC(=O)C1(c2ccccc2)CCCC1 [carbetapentane] | 97.9 | 94.3 | 94.3 | 105 | 91.1 | 90.6 | 93.8 | 104 | 97.6 | 100 | 104 | 103 | 97.2 | 97.5 | 94.4 | 99.4 | 102 | 99.5 | 101 | 95.5 | 103 | 93.9 | 108 | 104 | 97.6 | > 10 | > 10 | > 10 | > 10 | > 10 | 0 | 0 | 0 | 0 | 0 |
| C/C(O)=C(\C#N)C(=O)Nc1ccc(C(F)(F)F)cc1 [teriflunomide] | 98.1 | 98.2 | 102 | 95.1 | 94.1 | 104 | 97.2 | 95.3 | 105 | 94.2 | 104 | 107 | 93.4 | 98.1 | 94.4 | 102 | 98 | 102 | 99.8 | 99.7 | 102 | 101 | 97.1 | 98.2 | 93.9 | > 10 | > 10 | > 10 | > 10 | > 10 | 0 | 0 | 0 | 0 | 0 |
| O=P(O)(O)C(Cl)(Cl)P(=O)(O)O [clodronic-acid] | 98 | 103 | 96.3 | 100 | 100 | 94.3 | 97.1 | 96.5 | 96.1 | 109 | 99.2 | 96.6 | 98.6 | 101 | 102 | 99.4 | 102 | 105 | 101 | 103 | 108 | 103 | 97.7 | 101 | 99.1 | > 10 | > 10 | > 10 | > 10 | > 10 | 0 | 0 | 0 | 0 | 0 |
| NNC(=O)CN1C(=O)CN=C(c2ccccc2)c2cc(Br)ccc21 [gidazepam] | 95.8 | 92.7 | 94.4 | 90.2 | 95.7 | 104 | 99 | 100 | 110 | 98.5 | 106 | 92.2 | 109 | 106 | 106 | 96.5 | 92.2 | 96.8 | 91 | 97.5 | 99.3 | 102 | 93 | 94.1 | 102 | > 10 | > 10 | > 10 | > 10 | > 10 | 0 | 0 | 0 | 0 | 0 |
| NC(=O)[C@@H](CCC(F)(F)F)N(Cc1ccc(-c2ncon2)cc1F)S(=O)(=O)c1ccc(Cl)cc1 [avagacestat] | 103 | 99.9 | 95.9 | 93.2 | 77.1 | 96.2 | 105 | 106 | 95.2 | 105 | 96.6 | 102 | 94.9 | 105 | 87.9 | 99.1 | 94.9 | 102 | 93.1 | 96.5 | 107 | 110 | 106 | 109 | 99.2 | > 10 | > 10 | > 10 | > 10 | > 10 | 1.4 | 0 | 0 | 0 | 0 |
| O=S(=O)(N[C@H](CO)C(C(F)(F)F)C(F)(F)F)c1ccc(Cl)s1 [begacestat] | 118 | 102 | 99.8 | 96.1 | 109 | 99.4 | 102 | 108 | 104 | 96.7 | 99.1 | 106 | 88 | 96.5 | 96.6 | 100 | 94.2 | 102 | 89.7 | 93.6 | 99.6 | 101 | 105 | 95.7 | 84.6 | > 10 | > 10 | > 10 | > 10 | > 10 | 0 | 0 | 0 | 0 | 0.7 |
| CCC(=O)NC1CCc2cccc(OC)c2C1 (stereo not given) [8-M-PDOT] | 100 | 99.5 | 99.3 | 98.7 | 119 | 109 | 112 | 102 | 97.6 | 112 | 100 | 94.6 | 101 | 99.1 | 102 | 104 | 97.9 | 103 | 101 | 109 | 99.6 | 106 | 98.5 | 103 | 106 | > 10 | > 10 | > 10 | > 10 | > 10 | 0 | 0 | 0 | 0 | 0 |
| COCCN(C(=O)c1cc(OC)c(OC)c(OC)c1)c1nc(-c2ccccc2)cs1 [eact] | 103 | 84.3 | 96.2 | 88.9 | 90.9 | 107 | 96.2 | 94.1 | 92.8 | 85.1 | 107 | 95.6 | 104 | 104 | 92.5 | 102 | 97 | 100 | 96.1 | 106 | 94.4 | 104 | 90.4 | 96.6 | 97.5 | > 10 | > 10 | > 10 | > 10 | > 10 | 0.1 | 0.4 | 0 | 0 | 0 |
| CC(O)CC(=O)O (stereo not drawn) [beta-hydroxybutyrate] | 114 | 99.4 | 122 | 104 | 103 | 99.2 | 106 | 100 | 96.9 | 94.5 | 90.5 | 96.2 | 101 | 99.7 | 99 | 94.6 | 95.1 | 99.3 | 97.8 | 101 | 97.6 | 95.3 | 93.3 | 97.1 | 114 | > 10 | > 10 | > 10 | > 10 | > 10 | 0 | 0 | 0 | 0 | 0 |
| CCN(CC)CCOc1ccc(Cc2ccccc2)cc1 [DPPE] | 100 | 101 | 96.7 | 105 | 84.6 | 96 | 89.7 | 100 | 101 | 96.6 | 112 | 98.4 | 107 | 91.2 | 94.4 | 98.8 | 104 | 100 | 104 | 96.5 | 108 | 103 | 107 | 103 | 96 | > 10 | > 10 | > 10 | > 10 | > 10 | 0.1 | 0 | 0 | 0 | 0 |
| NC(=O)CC[C@H](N)C(=O)O [L-glutamine] | 93.2 | 90.8 | 100 | 96.1 | 101 | 91.5 | 91.7 | 96.9 | 95 | 91.2 | 92.6 | 102 | 104 | 91.6 | 100 | 102 | 102 | 94.4 | 99.1 | 93 | 100 | 100 | 95 | 93 | 92.7 | > 10 | > 10 | > 10 | > 10 | > 10 | 0 | 0 | 0 | 0 | 0 |
| C[C@@H](NCc1cc(Br)cc2nc(O)c(O)nc12)P(=O)(O)O | 97 | 100 | 109 | 94.4 | 97.5 | 103 | 86 | 81 | 110 | 102 | 94.2 | 94 | 99.4 | 93.3 | 89.2 | 107 | 97.2 | 96.6 | 92.5 | 98.4 | 105 | 105 | 103 | 98.8 | 96.1 | > 10 | > 10 | > 10 | > 10 | > 10 | 0 | 0 | 0 | 0 | 0 |
| CCOC(=O)[C@@H](N)Cc1ccc(-c2cc(O[C@H](c3ccc(Cl)cc3-n3ccc(C)n3)C(F)(F)F)nc(N)n2)cc1 [telotristat-ethyl] | 97.3 | 89.6 | 104 | 99.4 | 88.6 | 96.6 | 99.7 | 106 | 91.1 | 95.4 | 97.7 | 106 | 94.5 | 102 | 113 | 96.6 | 93.5 | 93.6 | 100 | 96.4 | 96.6 | 91.8 | 95.2 | 95.5 | 107 | > 10 | > 10 | > 10 | > 10 | > 10 | 0 | 0 | 0 | 0 | 0 |
| COc1cc2c(CCNC(C)=O)c[nH]c2cc1Cl [6-chloromelatonin] | 96 | 98.3 | 92.7 | 98.1 | 91 | 99.5 | 96.5 | 98.9 | 105 | 98.3 | 107 | 97.2 | 94.7 | 90.5 | 98.9 | 100 | 101 | 101 | 101 | 99.3 | 97.8 | 93.8 | 96.2 | 89.9 | 102 | > 10 | > 10 | > 10 | > 10 | > 10 | 0 | 0 | 0 | 0 | 0 |
| CCCCCCCCCCCCCCCC(=O)OC[C@@H](NC(=O)C(Cl)Cl)[C@H](O)c1ccc([N+](=O)[O-])cc1 [chloramphenicol-palmitate] | 111 | 102 | 99 | 95.1 | 95.3 | 97.3 | 95.6 | 95.2 | 97 | 102 | 98.1 | 101 | 103 | 92.4 | 88.6 | 105 | 99.6 | 102 | 104 | 100 | 107 | 107 | 102 | 97.2 | 99.3 | > 10 | > 10 | > 10 | > 10 | > 10 | 0 | 0 | 0.2 | 0 | 0 |
